Reference: US20160008277A1, “CO-PACKAGED DRUG PRODUCTS” (Lightlake Therapeutics Inc., priority 2014, published 2016)
Read-outs that look alike come from different tables or passages of the source.

Assays:
clinical = conditions: male, human, plasma, other: intranasal, Male; for Tmax: Tmax (median)
[1] = Safety of intranasal naloxone in humans (Study 2): nasal irritation, adverse events, vital signs, ECG; type: in vivo, human
Excerpt: Specifically, the study had several objectives.
AEs were coded using the most recent version of the Medical Dictionary for Regulatory Activities (MedDRA) preferred terms and grouped by system, organ, class (SOC) designation. Separate summaries will be provided for the 5 study periods: after the administration of each dose of study drug up until the time of the next dose of study drug or clinic discharge. Listings of each individual AE including start date, stop date, severity, relationship, outcome, and duration were provided. Results are given below in Tables 12 and 13.

[2] = system: suspected opiate overdose; conditions: cited from earlier work
[3] = 400 μL, cited from earlier work
[4] = system: suspected opiate overdose; conditions: cited from earlier work; remark: listed apart in the source
heroin overdose = conditions: cited from earlier work
[5] = system: patients with suspected narcotic overdose; conditions: cited from earlier work
[6] = Safety of intranasal naloxone in humans (Study 1): nasal irritation, vital signs, ECG, clinical laboratory; type: in vivo, human
Procedure: These vital signs and temperature were also measured at screening, clinic intake, one day after each dosing session and at follow-up. […] AEs were recorded from the start of study-drug administration until clinic discharge. […] Clinical laboratory measurements were done prior to the first drug administration and on the day of clinic release.
Statistical Analysis of Adverse Events: AEs were coded using the most recent version of the Medical Dictionary for Regulatory Activities (MedDRA). Preferred terms and are grouped by system, organ, class (SOC) designation. AEs are presented as a listing including the start date, stop date, severity, relationship, outcome, and duration.

C=CCN1CC[C@]23c4c5ccc(O)c4O[C@H]2C(=O)CC[C@@]3(O)[C@H]1C5 [naloxone, 17-allyl-4,5a-epoxy-3,14-dihydroxymorphinan-6-one]
Cmax (clinical; 2 mg, One 20 mg/mL IN): 3.35 ng/mL
Tmax (clinical; 2 mg, One 20 mg/mL IN): 19.8 min
Cmax (clinical; 4 mg, One 40 mg/mL IN): 5.51 ng/mL
Cmax (clinical; 4 mg, Two 20 mg/mL IN): 6.64 ng/mL
Tmax (clinical; 4 mg, Two 20 mg/mL IN): 15 min
Cmax (clinical; 8 mg, Two 40 mg/mL IN): 10.9 ng/mL
Dizziness (adverse events) ([1]; 0.4 mg Intramuscular Dose): 1
Headache (adverse events) ([1]; 0.4 mg Intramuscular Dose): 1
Nausea (adverse events) ([1]; 0.4 mg Intramuscular Dose): 1
Edema (events related to nasal irritation) ([1]; 2 mg (20 mg/mL, one spray)): 2
Erythema (events related to nasal irritation) ([1]; 2 mg (20 mg/mL, one spray)): 4
Nasal Pain (adverse events) ([1]; 2 mg (20 mg/mL, one spray)): 1
Other (events related to nasal irritation) ([1]; 2 mg (20 mg/mL, one spray)): 1
Total (events related to nasal irritation) ([1]; 2 mg (20 mg/mL, one spray)): 7
Edema (events related to nasal irritation) ([1]; 4 mg (20 mg/mL, two sprays)): 0
Erythema (events related to nasal irritation) ([1]; 4 mg (20 mg/mL, two sprays)): 1
Other (events related to nasal irritation) ([1]; 4 mg (20 mg/mL, two sprays)): 0
Total (events related to nasal irritation) ([1]; 4 mg (20 mg/mL, two sprays)): 1
Edema (events related to nasal irritation) ([1]; 4 mg (40 mg/mL, one spray)): 2
Erythema (events related to nasal irritation) ([1]; 4 mg (40 mg/mL, one spray)): 1
Other (events related to nasal irritation) ([1]; 4 mg (40 mg/mL, one spray)): 0
Total (events related to nasal irritation) ([1]; 4 mg (40 mg/mL, one spray)): 3
Edema (events related to nasal irritation) ([1]; 8 mg (40 mg/mL, two sprays)): 1
Erythema (events related to nasal irritation) ([1]; 8 mg (40 mg/mL, two sprays)): 0
Headache (adverse events) ([1]; 8 mg (40 mg/mL, two sprays)): 1
Other (events related to nasal irritation) ([1]; 8 mg (40 mg/mL, two sprays)): 0
Total (events related to nasal irritation) ([1]; 8 mg (40 mg/mL, two sprays)): 1
Relation of nasal irritation to the dose of naloxone given ([1]; 2 to 8 mg IN): did not appear to be positively related to the dose
QTcF prolongation ([1]; Study 2): no evidence of QTcF prolongation
Vital signs, ECG, and clinical laboratory parameters ([1]; after naloxone administration, Study 2): did not reveal any clinically noteworthy changes
Adverse events overall ([1]; nasal or intramuscular administration, Study 2): few adverse events were reported
patients with more than 10 spontaneous respirations per minute within 8 minutes ([2]; 2 mg IM group): 82%
patients with more than 10 spontaneous respirations per minute within 8 minutes ([2]; 2 mg IN group): 63%
patients needing rescue naloxone ([2]; IM group): 13%
patients needing rescue naloxone ([2]; IN group): 26%
mean Tmax ([3]; 8 mg IN): 20.4 min
mean Tmax ([3]; 16 mg IN): 23.4 min
patients responding to IN naloxone alone ([4]; 2 mg IN, 43 of 52 patients who responded to naloxone by IN or IV): 83%
median time from administration of the IN naloxone to patient awakening ([4]; 2 mg IN): 3.0 min
median time from arrival at patient side to awakening ([4]; 2 mg IN): 8.0 min
patients requiring further doses of IV naloxone ([4]; among responders to 2 mg IN alone): 16%
rate of response within 10 minutes (heroin overdose; 2 mg IM naloxone, 69/89): 77.5%
rate of response within 10 minutes (heroin overdose; 2 mg IN naloxone, 60/83): 72.3%
patients administered supplementary naloxone (heroin overdose; IM naloxone): 4.5%
mean response time (heroin overdose; IN naloxone): 8.0 min
mean response time (heroin overdose; IV naloxone): 7.9 min
Clinical response noted ([5]; IN group (2 mg), 33 of 50): 66%
mean time between naloxone administration and clinical response ([5]; IN group): 12.9 min
patients who received two doses of naloxone ([5]; IN group): 34%
Clinical response noted ([5]; IV group, 58 of 104): 56%
mean time between naloxone administration and clinical response ([5]; IV group): 8.1 min
patients who received two doses of naloxone ([5]; IV group): 18%
Pharyngeal pain ([6]; 2 mg IN dose): One subject experienced mild transient (over 3 min) pharyngeal pain
Nasal irritation (erythema, edema, erosion, other sign in the nasal cavity) ([6]; IN naloxone at 2 and 4 mg to both nostrils): No erythema, edema, erosion, or other sign was observed
QTcF prolongation ([6]; Study 1): no evidence of QTcF prolongation
Vital signs, ECG, and clinical laboratory parameters ([6]; after naloxone administration, Study 1): did not reveal any clinically noteworthy changes
